Columns and labels:
T cells = test: Energy metabolism (Seahorse OCR/ECAR) in T cells; format: cell-based, human; details: 5 days, PatA, DMDA 0.25-0.5 nM, silvestrol 5 nM
Protocol: (§1) The determination of the energy metabolism was performed as described previously. Briefly, for the analysis of the extracellular acidification rate (ECAR) and the oxygen consumption rate (OCR) for human B cells, Tcells, M1 MdMs and M2 MdMs, the Seahorse XFe96 FluxPak (Agilent, Waldbronn, Germany) was used as recommended by the manufacturer. MdMs were polarized to M1 or M2 MdMs in the presence of PatA (0.5, 2.5, 5 nM), DMDA (0.5, 2.5, 5 nM) or vehicle (DMSO) for 48 h or 24 h, respectively. T cells were activated in the presence of PatA (0.25, 0.5 nM), DMDA (0.25, 0.5 nM), silvestrol or DMSO. B cells were activated in the presence of PatA (0.25, 0.5 nM), DMDA (0.25, 0.5 nM), silvestrol (5 nM) or rapamycin (10 ng/mL positive control). Cells were washed with Seahorse XF RPMI medium pH 7.4 (Agilent, Waldbronn, Germany) and OCR and ECAR were measured as octuplicates for a period of 160 min using the Seahorse XFe96 Analyzer (Agilent, Waldbronn, Germany) and analyzed by Wave Software 2.6.3.8 (Agilent, Waldbronn, Germany). The relative values were calculated by relating the OCR or ECAR values obtained after 50 min to the values of the vehicle control (not stimulated).

TK6 cells = test: Micronuclei assay; format: cell-based, human; details: 4 h incubation then 44 h
Protocol: The In-Vitro Micronuclei Plus assay (Becton Dickinson, Heidelberg, Germany) was performed as described by the supplier. Briefly, 2 × 10^4 TK6 cells were incubated with increasing concentrations of PatA, DMDA and silvestrol for 4 h. The cells were washed with PBS and incubated in fresh medium (without test substance) for 44 h. The cells were centrifuged (300× g) for 5 min, the […] and placed on ice for 20 min. Then, 50 µL of Complete Nucleic Acid Dye A Solution was added. The plate was placed on ice and exposed to visible light for 30 min. The Nucleic Acid Dye A solution was removed and the cells were washed with 0.15 mL of cold 1x Buffer Solution. An amount of 100 µL Complete Lysis Solution 1 was added, followed by gently mixing of the plate for 5 s and incubation of 1 h in the dark at 37 °C. Then, 100 µL Complete Lysis Solution 2 was added and incubated for 30 min in the dark at room temperature. The cells were analyzed via flow cytometry with the MACSQuant 10 (Miltenyi GmbH, Bergisch Gladbach, Germany).

M1 MdMs = test: Polarization of MdMs to M1 MdMs (zombie staining, flow cytometry, ELISA/CBA); format: cell-based, human; details: for Surface marker expression (CD86, CD80, TREM2, HLA-DR, CD206, CD14, CD163) / Apoptosis (zombie staining) / Inflammatory environment: release of cytokines (IL-6, IL-8, CCL2, CCL17, CL18, IFN-γ) and PGE2: M1 MdMs; for Surface marker expression (CD86, CD80, TREM2, HLA-DR, CD206, CD14, CD163) / Apoptosis (zombie staining): 48 h; for Surface marker expression (CD86, CD80, TREM2, HLA-DR, CD206, CD14, CD163): flow cytometry; for Apoptosis (zombie staining): IFN-γ polarization, 0.5-5 nM; for Inflammatory environment: release of cytokines (IL-6, IL-8, CCL2, CCL17, CL18, IFN-γ) and PGE2: supernatant, ELISA or CBA; for Effect on the release of inflammatory markers, M1 MdM: summary table
Protocol: The differentiation of human monocytes to macrophages (MdMs) was performed as previously described. Briefly, 0.5 × 10^6 CD14^+ cells/well were pretreated with different concentrations of PatA and DMDA or vehicle (DMSO) for 30 min. After pre-incubation, differentiation was initiated by the addition of 10 ng/mL GM-CSF for M1 MdMs or 50 ng/mL M-CSF for M2 MdMs and incubated for 7 days.
The polarization of MdMs to M1 or M2 MdMs was performed as previously described. M1 and M2 MdM polarization was conducted in separate experiments. Briefly, M1 MdMs were polarized in presence of PatA (0.5, 2.5, 5 nM), DMDA (0.5, 2.5, 5 nM) or vehicle (DMSO) with 20 ng/mL human IFN-γ for 48 h. M2 MdMs were polarized in presence of PatA (0.5, 2.5, 5 nM), DMDA (0.5, 2.5, 5 nM) or vehicle (DMSO) with 10 ng/mL human IL-4 for 24 h.
(§2) Surface marker analysis was performed as described previously. Briefly, 1.5–2 × 10^5 cells of each sample were blocked with human FcR Blocking Reagent (15 min, 4 °C). A Zombie Aqua™ Fixable Viability Kit (1:500 dilution, BioLegend, San Diego, CA, USA) was used according to the manufactory protocol to discriminate living and dead cells. Afterwards, samples were stained with a mixture of different surface marker antibodies (15 min, 4 °C) and measured with MACSQuant® Analyzer 10 flow cytometer. For M1-/M2-MdMs anti-CD86, anti-CD14, anti-HLA-DR, anti-CD206, anti-CD80, anti-TREM2 and anti-CD163 were used. For T cells, anti-CD69, anti-CD54, anti-CD49a, anti-CD18, anti-CD134, anti-CD154, anti-CD3 and anti-CD25 were analyzed. For B cells, anti-CD27, anti-CD19 and anti-CD38 were applied. For T cell and B cell proliferation assay, freshly isolated T and B cells were stained with CTV and detected using flow cytometry. Naïve B cells were characterized as CD19^+CD27^lowCD38^med, memory B cells as CD19^+CD27^med CD38^low and plasma cells as CD27^+CD38^+ cells. M1 MdMs and M2 MdMs cell population was gated using FSC/SSC channel. T cells were gated as CD3^+CD25^+ positive cells. The geometric mean of the fluorescent intensity was calculated using FlowJo software v10 (Treestar, Ashland, […], USA). Fold induction of surface marker expression was calculated using the DMSO-treated cells as the control.
(§3) For determination of cytokine concentrations in the supernatant of humane immune cells, cytometric bead array (BD Biosciences, Heidelberg, Germany) for IL-10, IL-17, IL-8, IL-6, IFN-γ and CCL2 was used. For the detection of CCL18, CCL17, IgG, IgA and PGE2, an ELISA was performed. The cytometric bead arrays and the ELISAs were performed according to the protocol of the supplier.

Human primary T cells = test: T cell activation with anti-CD3/anti-CD28; format: cell-based; details: for Number of activated cells (CD3+CD25+CD69+ cells) / Proliferation rate (CTV) / Surface marker expression (CD69, CD154, CD134, CD25, CD18, CD49a, CD54) / Apoptosis (zombie staining) / Cytokine release (IL-17A, IL-10, IFN-γ): activated T cells, 5 days; for Apoptosis (zombie staining): 0.25-0.5 nM; for Cytokine release (IL-17A, IL-10, IFN-γ): CBA; for Effect on the release of inflammatory markers, T Cells: summary table
Protocol: T cells were activated as previously described. Briefly, 1.75 × 10^5 T cells (stained with 0.2 µM CellTrace^TM violet (CTV) (ThermoFisher Scientific, Schwerte, Germany)) per well were pretreated with PatA (0.25, 0.5 nM), DMDA (0.25, 0.5 nM) or vehicle (DMSO) for 30 min in RPMI 1640 medium supplemented with 2 mM glutamine, 50 Units/mL IL-2, 1% penicillin/streptomycin and 10% FCS. Afterwards, they were seeded in CD3-coated 96-well plates and stimulated with 2 µg/mL CD28 for 5 days. CTV staining was performed according to the protocol of supplier.
as §2, §3

M2 MdMs = test: Energy metabolism (Seahorse OCR/ECAR) in M2 MdMs; format: cell-based, human; details: 24 h, 0.5-5 nM
Protocol: as §1

[1] = Transport assay, porous membrane without cell barrier; format: in vitro ADME; details: 100 nM; for Transport rate without a cell barrier: apical to basolateral

Compound	Energy metabolism: glycolysis (ECAR) and oxidative phosphorylation (OCR) (T cells)	Genotoxic potential: micronuclei (clastogenic) and hypodiploid cells (aneugenic) (TK6 cells)	Surface marker expression (CD86, CD80, TREM2, HLA-DR, CD206, CD14, CD163) (M1 MdMs)	Apoptosis (zombie staining) (M1 MdMs)	Inflammatory environment: release of cytokines (IL-6, IL-8, CCL2, CCL17, CL18, IFN-γ) and PGE2 (M1 MdMs)	Effect on the release of inflammatory markers, M1 MdM (M1 MdMs)	Number of activated cells (CD3+CD25+CD69+ cells) (Human primary T cells)	Proliferation rate (CTV) (Human primary T cells)	Surface marker expression (CD69, CD154, CD134, CD25, CD18, CD49a, CD54) (Human primary T cells)	Apoptosis (zombie staining) (Human primary T cells)	Cytokine release (IL-17A, IL-10, IFN-γ) (Human primary T cells)	Effect on the release of inflammatory markers, T Cells (Human primary T cells)	Energy metabolism: glycolysis (ECAR) and oxidative phosphorylation (OCR) (M2 MdMs)	Transport rate without a cell barrier ([1]; 4 h)	Transport rate without a cell barrier ([1]; 24 h) [%]	Genotoxic potential: micronuclei (clastogenic) and hypodiploid cells (aneugenic) (TK6 cells; 10 nM)	Stability in the media under transport assay conditions ([1]; inferred from transport without cell barrier)
CC(/C=C/C(C)=C/[C@@H]1Cc2nc(cs2)CCCCC(=O)O[C@@H](C)C/C(C)=C/C=C\C(=O)O1)=C\CN(C)C [DMDA, des-methyl des-amino pateamine A]	did not alter the energy metabolism	induced neither clastogenic nor aneugenic effects	only reduced CD14 expression	Neither PatA nor DMDA induced apoptosis	did not affect the inflammatory environment	No effect	did not influence the number of activated cells	Neither had any effects	Neither had any effects	showed no apoptotic effects	Neither had any effects	No effect	had no effect on energy consumption	about 28%	~41	–	–
CC(/C=C/C(C)=C/[C@@H]1Cc2nc(cs2)[C@@H](C)C[C@@H](N)CC(=O)O[C@@H](C)C/C(C)=C/C=C\C(=O)O1)=C\CN(C)C [PatA, pateamine A]	did not alter the energy metabolism	–	no significant effect on surface marker expression	Neither PatA nor DMDA induced apoptosis	did not affect the inflammatory environment	No effect	did not influence the number of activated cells	Neither had any effects	Neither had any effects	showed no apoptotic effects	Neither had any effects	No effect	reduced glycolysis and oxidative phosphorylation	about 28%	–	induced clastogenic effects	probably unstable in the media

— paper PMC11546719, “Immune Modulatory Profile of the Pateamines PatA and Des-Methyl Des-Amino PatA” (International Journal of Molecular Sciences, 2024)
